Experiment [1] has as its target T1, Muscarinic acetylcholine receptor M1 (Homo sapiens, UniProt P11229).
T1 sequence (P11229 whole entry): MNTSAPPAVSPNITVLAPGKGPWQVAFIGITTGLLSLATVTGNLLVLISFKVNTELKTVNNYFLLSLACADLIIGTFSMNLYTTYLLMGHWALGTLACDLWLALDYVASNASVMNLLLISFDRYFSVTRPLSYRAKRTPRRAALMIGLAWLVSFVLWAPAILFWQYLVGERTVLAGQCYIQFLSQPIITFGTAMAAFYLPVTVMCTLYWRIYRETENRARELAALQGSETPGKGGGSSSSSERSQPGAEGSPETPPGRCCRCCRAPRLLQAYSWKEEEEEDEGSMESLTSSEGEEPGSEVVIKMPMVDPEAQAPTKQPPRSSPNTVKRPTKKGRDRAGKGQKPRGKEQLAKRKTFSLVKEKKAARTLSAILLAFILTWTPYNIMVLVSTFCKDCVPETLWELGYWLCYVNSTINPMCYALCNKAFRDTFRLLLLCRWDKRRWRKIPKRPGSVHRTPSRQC
Put plainly: (§1) Binding Assay: Binding affinity (Ki) of compounds was measured by inhibition of radioligand binding to membranes from CHO cells expressing human M1, M2, M3, M4 and M5 receptors. Membranes were prepared by nitrogen cavitation and differential centrifugation as previously described (Hoare et al., Mol. Pharmacol. 2003 March; 63(3): 751-65). The radioligand employed was tritiated N-methylscopolamine, used at a concentration of 1.5 nM. A dose-response of twelve concentrations of compound was used, […]. The assay buffer was 50 mM HEPES, 100 mM NaCl, 5 mM MgCl2, 1 mM ethylenediaminetetraacetic acid, pH-adjusted to pH 7.4.

Experiment [2] has as its target T2, Muscarinic acetylcholine receptor M4 (Homo sapiens, UniProt P08173).
T2 sequence (P08173 whole entry): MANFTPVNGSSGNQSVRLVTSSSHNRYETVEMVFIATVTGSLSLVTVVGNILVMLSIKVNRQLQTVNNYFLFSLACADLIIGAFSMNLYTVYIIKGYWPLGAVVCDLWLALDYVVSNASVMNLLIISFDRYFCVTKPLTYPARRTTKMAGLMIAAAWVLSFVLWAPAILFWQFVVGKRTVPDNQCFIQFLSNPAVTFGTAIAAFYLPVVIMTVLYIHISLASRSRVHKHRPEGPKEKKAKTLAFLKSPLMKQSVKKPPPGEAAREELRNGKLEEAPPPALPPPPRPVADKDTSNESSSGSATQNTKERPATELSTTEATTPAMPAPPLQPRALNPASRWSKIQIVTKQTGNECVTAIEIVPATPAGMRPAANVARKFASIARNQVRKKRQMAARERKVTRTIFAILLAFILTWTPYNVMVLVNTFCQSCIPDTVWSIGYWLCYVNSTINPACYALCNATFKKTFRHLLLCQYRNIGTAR
The experiment is described as §1.

The text below walks through data of ChEMBL document CHEMBL5728519, “Compounds of formulas (VII), (VIII), (IX), (XI), (XII), (XIII), and (XIV) as muscarinic receptor 4(M4) antagonists for treating neurological diseases” (2021).

One may read the Ki as the equilibrium dissociation constant of an inhibitor or competing ligand from its target. Read a high Ki as weaker binding. In experiment [1], `C[C@@H]1CN(c2ncc(C(F)(F)F)cn2)CCN1C(=O)NCCC1CCN(Cc2ccccc2)CC1` gave a Ki of 100 to 1000 nM. Regarding `C[C@@H]1CN(c2ncc(C(F)(F)F)c(N)n2)CCN1C(=O)NCCC1CCN(Cc2ccccc2)CC1`, the Ki in experiment [1] was 10 to 100 nM. Take `COc1ccc(N2CCN(C(=O)NCCC3CCN(Cc4ccccc4)CC3)[C@H](C)C2)cc1C#N`: the Ki in experiment [2] is 10 to 100 nM.
